Active and inactive are the calls of the source.
Experiments:
[1] = tested on: 3T3-L1; assay: Lipid lowering activity in mouse 3T3-L1 cells assessed as reduction in adipogenic cocktail-induced triglyceride levels incubated for 6 days by GPO-POD assay; assay type: functional, cell-based; details: for EC50: 3T3-L1, 144 h; for inhibition: time 6.0 day
[2] = tested on: 3T3-L1; assay: Inhibition of adipogenic cocktail-induced ACC protein expression in mouse 3T3-L1 cells incubated for 6 days by Western blot analysis; assay type: functional, cell-based; details: time 6.0 day
[3] = tested on: 3T3-L1; assay: Inhibition of adipogenic cocktail-induced C/EBP-alpha mRNA expression in mouse 3T3-L1 cells at 1 uM after 1 day in presence of GR-alpha siRNA by RT-qPCR analysis; assay type: functional, cell-based
[4] = tested on: 3T3-L1; assay: Inhibition of adipogenic cocktail-induced C/EBPalpha protein expression in mouse 3T3-L1 cells incubated for 24 hrs by Western blot analysis; assay type: functional, cell-based
[5] = tested on: 3T3-L1; assay: Inhibition of adipogenic cocktail-induced C/EBP-beta mRNA expression in mouse 3T3-L1 cells at 1 to 10 uM incubated for 0.5 hrs by RT-qPCR analysis; assay type: functional, cell-based; details: dose 1-10 µM
[6] = tested on: 3T3-L1; assay: Inhibition of adipogenic cocktail-induced C/EBP-delta mRNA expression in mouse 3T3-L1 cells at 1 to 10 uM incubated for 0.5 hrs by RT-qPCR analysis; assay type: functional, cell-based; details: dose 1-10 µM
[7] = tested on: 3T3-L1; assay: Inhibition of adipogenic cocktail-induced GR-alpha nuclear translocation in mouse 3T3-L1 cells at 1 uM after 8 hrs by immunofluorescence assay; assay type: cell-based
[8] = tested on: 3T3-L1; assay: Inhibition of adipogenic cocktail-induced PPARgamma protein expression in mouse 3T3-L1 cells incubated for 24 hrs by Western blot analysis; assay type: functional, cell-based
[9] = tested on: 3T3-L1; assay: Inhibition of adipogenic cocktail-induced C/EBPbeta protein expression in mouse 3T3-L1 cells incubated for 24 hrs by Western blot analysis; assay type: functional, cell-based
[10] = Toxicity in mouse 3T3-L1 cells assessed as reduction in cell viability incubated for 6 days by MTT assay; assay type: cell-based
[11] = tested on: 3T3-L1; assay: Lipid lowering activity in mouse 3T3-L1 cells assessed as reduction in adipogenic cocktail-induced triglyceride levels at 1 uM incubated for 6 days by GPO-POD assay; assay type: functional, cell-based; details: time 6.0 day
[12] = tested on: 3T3-L1; assay: Inhibition of adipogenic cocktail-induced GR-alpha protein expression in mouse 3T3-L1 cells at 1 to 10 uM incubated for 4 to 24 hrs by Western blot analysis; assay type: functional, cell-based; details: dose 1-10 µM, time 4-24 hrs
[13] = tested on: 3T3-L1; assay: Inhibition of adipogenic cocktail-induced GR-beta protein expression in mouse 3T3-L1 cells at 1 to 10 uM incubated for 4 to 24 hrs by Western blot analysis; assay type: functional, cell-based; details: dose 1-10 µM, time 4-24 hrs
[14] = tested on: 3T3-L1; assay: Inhibition of adipogenic cocktail-induced PPARgamma mRNA expression in mouse 3T3-L1 cells at 1 uM after 1 day in presence of GR-alpha siRNA by RT-qPCR analysis; assay type: functional, cell-based
[15] = tested on: 3T3-L1; assay: Inhibition of adipogenic cocktail-induced SCD1 mRNA expression in mouse 3T3-L1 cells incubated for 6 days by RT-qPCR analysis; assay type: functional, cell-based; details: time 6.0 day
[16] = tested on: 3T3-L1; assay: Inhibition of adipogenic cocktail-induced GR-beta nuclear translocation in mouse 3T3-L1 cells at 1 uM after 8 hrs by immunofluorescence assay; assay type: cell-based
[17] = tested on: 3T3-L1; assay: Toxicity in mouse 3T3-L1 cells assessed as reduction in cell viability at 10 uM incubated for 6 days by LDH release assay; assay type: cell-based; details: 3t3-l1, 144 h, time 6 day
[18] = tested on: 3T3-L1; assay: Lipid lowering activity in mouse 3T3-L1 cells assessed as reduction in adipogenic cocktail induced triglyceride levels at 1 uM incubated for 6 days in presence of GR-alpha siRNA by GPO-POD assay; assay type: functional, cell-based; details: time 6.0 day
[19] = tested on: 3T3-L1; assay: Inhibition of cell differentiation in mouse 3T3-L1 cells assessed as reduction in adipogenic cocktail-induced triglyceride levels at 1 uM incubated for 0 to 3 days by Oil-Red O staining; assay type: functional, cell-based; details: time 0-3 day
[20] = tested on: 3T3-L1; assay: Inhibition of GR-alpha in mouse 3T3-L1 cells assessed as reduction in adipogenic cocktail-induced Dexras1 protein expression incubated for 0.5 to 24 hrs by Western blot analysis; assay type: cell-based; details: time 0.5-24 hrs
[21] = tested on: 3T3-L1; assay: Inhibition of cell differentiation in mouse 3T3-L1 cells assessed as reduction in adipogenic cocktail-induced triglyceride levels at 1 uM incubated for 0 to 9 days by Oil-Red O staining; assay type: functional, cell-based; details: time 0-9 day
[22] = tested on: 3T3-L1; assay: Inhibition of GR-alpha in mouse 3T3-L1 cells assessed as reduction in GR-alpha interaction with Dexras1 at 1 uM incubated for 8 hrs by ChIP assay; assay type: cell-based
[23] = tested on: HEK293; assay: Toxicity in HEK293 cells assessed as reduction in cell viability at 10 uM incubated for 6 days by MTT assay; assay type: cell-based; details: human, hek293, 144 h, time 6 day
[24] = tested on: 3T3-L1; assay: Inhibition of adipogenic cocktail-induced FAS mRNA expression in mouse 3T3-L1 cells at 1 uM after 6 days in presence of GR-alpha siRNA by RT-qPCR analysis; assay type: functional, cell-based; details: time 6.0 day
[25] = tested on: 3T3-L1; assay: Inhibition of cell differentiation in mouse 3T3-L1 cells assessed as reduction in adipogenic cocktail-induced triglyceride levels at 1 uM incubated for 0 to 9 days by GPO-POD assay; assay type: functional, cell-based; details: time 0-9 day
[26] = tested on: 3T3-L1; assay: Lipid lowering activity in mouse 3T3-L1 cells assessed as reduction in adipogenic cocktail-induced triglyceride levels at 10 uM incubated for 6 days by GPO-POD assay; assay type: functional; details: 3T3-L1, 144 h, time 6 day
[27] = tested on: 3T3-L1; assay: Inhibition of adipogenic cocktail-induced PPARgamma mRNA expression in mouse 3T3-L1 cells incubated for 24 hrs by RT-qPCR analysis; assay type: functional, cell-based
[28] = tested on: 3T3-L1; assay: Inhibition of GR-alpha in mouse 3T3-L1 cells assessed as reduction in GR-alpha interaction with PPAR-gamma at 1 uM incubated for 8 hrs by ChIP assay; assay type: cell-based
[29] = tested on: 3T3-L1; assay: Inhibition of adipogenic cocktail-induced C/EBPdelta protein expression in mouse 3T3-L1 cells incubated for 24 hrs by Western blot analysis; assay type: functional, cell-based
[30] = tested on: 3T3-L1; assay: Inhibition of adipogenic cocktail-induced C/EBPbeta mRNA expression in mouse 3T3-L1 cells incubated for 24 hrs by RT-qPCR analysis; assay type: functional, cell-based
[31] = tested on: 3T3-L1; assay: Inhibition of GR-alpha in mouse 3T3-L1 cells assessed as reduction in adipogenic cocktail-induced Dexras1 mRNA expression incubated for 0.5 to 24 hrs by RT-qPCR analysis; assay type: cell-based; details: time 0.5-24 hrs
[32] = tested on: 3T3-L1; assay: Inhibition of cell differentiation in mouse 3T3-L1 cells assessed as reduction in adipogenic cocktail-induced triglyceride levels at 1 uM incubated for 0 to 3 days by GPO-POD assay; assay type: functional, cell-based; details: time 0-3 day
[33] = tested on: 3T3-L1; assay: Inhibition of adipogenic cocktail-induced GR-alpha nuclear translocation in mouse 3T3-L1 cells at 1 uM after 8 hrs by Western blot analysis; assay type: cell-based
[34] = Selectivity index, ratio of IC50 for cytotoxicity against mouse 3T3-L1 cells to EC50 for lipid lowering activity in mouse 3T3-L1 cells
[35] = tested on: 3T3-L1; assay: Inhibition of adipogenic cocktail-induced C/EBP-delta protein expression in mouse 3T3-L1 cells at 1 to 10 uM incubated for 0.5 hrs by Western blot analysis; assay type: functional, cell-based; details: dose 1-10 µM
[36] = tested on: 3T3-L1; assay: Inhibition of adipogenic cocktail-induced FAS protein expression in mouse 3T3-L1 cells incubated for 6 days by Western blot analysis; assay type: functional, cell-based; details: time 6.0 day
[37] = tested on: 3T3-L1; assay: Inhibition of cell differentiation in mouse 3T3-L1 cells assessed as reduction in adipogenic cocktail-induced triglyceride levels at 1 uM incubated for 0 to 6 days by Oil-Red O staining; assay type: functional, cell-based; details: time 0-6 day
[38] = tested on: 3T3-L1; assay: Inhibition of adipogenic cocktail-induced C/EBPalpha mRNA expression in mouse 3T3-L1 cells incubated for 24 hrs by RT-qPCR analysis; assay type: functional, cell-based

CC(=O)O[C@@H]1C(C)=C[C@H]2[C@@H]3C(C)(C)[C@]3(OC(=O)C(C)C)[C@H](OC(=O)c3ccccc3)[C@@H](C)[C@]2(O)[C@@H]2C=C(C)C(=O)[C@@H]12
active: inhibition [1] Dose-dependent effect | inhibition [2] Dose-dependent effect | inhibition [3] | inhibition [4] Dose-dependent effect | inhibition [7] | inhibition [8] Dose-dependent effect | inhibition [9] Dose-dependent effect | inhibition [11] | inhibition [14] | inhibition [15] Dose-dependent effect | inhibition [18] | inhibition [19] | inhibition [20] Dose-dependent effect | inhibition [22] | inhibition [24] | inhibition [27] Dose-dependent effect | inhibition [28] | inhibition [29] Dose-dependent effect | inhibition [30] Dose-dependent effect | inhibition [31] Dose-dependent effect | inhibition [32] | inhibition [33] | inhibition [36] Dose-dependent effect | inhibition [38] Dose-dependent effect
> 50%: inhibition at 10 µM [26]
320 nM: EC50 [1]
> 100000 nM: IC50 at 6 days [10]
inactive: inhibition [5] | inhibition [6] | inhibition [12] | inhibition [13] | inhibition [16] | inhibition [21] | inhibition [25] | inhibition [35] | inhibition [37]
Non-Toxic: Activity [17] | Activity [23]
>312: Selectivity Index [34]

CC1=C[C@@H]2[C@@H](C1=O)[C@H](O)C(C)=C[C@H]1[C@@H]3C(C)(C)[C@]3(OC(=O)C(C)C)[C@H](OC(=O)c3ccccc3)[C@@H](C)[C@]21O
17200 nM: IC50 at 6 days [10]
610 nM: EC50 [1]
> 50%: inhibition at 10 µM [26]
active: inhibition [1] Dose-dependent effect | inhibition [2] Dose-dependent effect | inhibition [3] | inhibition [4] Dose-dependent effect | inhibition [7] | inhibition [8] Dose-dependent effect | inhibition [9] Dose-dependent effect | inhibition [11] | inhibition [14] | inhibition [15] Dose-dependent effect | inhibition [18] | inhibition [19] | inhibition [20] Dose-dependent effect | inhibition [22] | inhibition [24] | inhibition [27] Dose-dependent effect | inhibition [28] | inhibition [29] Dose-dependent effect | inhibition [30] Dose-dependent effect | inhibition [31] Dose-dependent effect | inhibition [32] | inhibition [33] | inhibition [36] Dose-dependent effect | inhibition [38] Dose-dependent effect
28: Selectivity Index [34]
inactive: inhibition [5] | inhibition [6] | inhibition [12] | inhibition [13] | inhibition [16] | inhibition [21] | inhibition [25] | inhibition [35] | inhibition [37]
Non-Toxic: Activity [17] | Activity [23]

Reference: ChEMBL document CHEMBL4680113, “Tigliane Diterpenoids as a New Type of Antiadipogenic Agents Inhibit GRα-Dexras1 Axis in Adipocytes” (J Med Chem, 2019)
